According to patent publication US8231888B2, “Isoxazolines for controlling invertebrate pests” (priority 2005, dated 2012):

Tests used:
Assay type in all cases: in vivo
[1] = test system: diamondback moth (Plutella xylostella); experiment: Test A: control of diamondback moth on radish plant, foliar spray; conditions: sprayed at 250 and/or 50 ppm, 6 days, 25° C.; no asterisk (not limited to 250 ppm)
Description: For evaluating control of diamondback moth (Plutella xylostella) the test unit consisted of a small open container with a 12-14-day-old radish plant inside. This was pre-infested with about 50 neonate larvae that were dispensed into the test unit via corn cob grits using a bazooka inoculator. The larvae moved onto the test plant after being dispensed into the test unit.
(§1) Test compounds were formulated using a solution containing 10% acetone, 90% water and 300 ppm X-77™ Spreader Lo-Foam Formula non-ionic surfactant containing alkylarylpolyoxyethylene, free fatty acids, glycols and isopropanol (Loveland Industries, Inc. Greeley, Colo., USA). The formulated compounds were applied in 1 mL of liquid through a SUJ2 atomizer nozzle with 1/8 JJ custom body (Spraying Systems Co. Wheaton, Ill., USA) positioned 1.27 cm (0.5 inches) above the top of each test unit. All experimental compounds in these tests were sprayed at 250 and/or 50 ppm, and the test was replicated three times. After spraying of the formulated test compound, each test unit was allowed to dry for 1 h and then a black, screened cap was placed on top. The test units were held for 6 days in a growth chamber at 25° C. and 70% relative humidity. Plant feeding damage was then visually assessed based on foliage consumed and a pest mortality rating was also counted and calculated for each test unit.

[2] = test system: fall armyworm (Spodoptera frugiperda); experiment: Test B: control of fall armyworm on corn (maize) plant, foliar spray; conditions: sprayed at 250 and/or 50 ppm; no asterisk (not limited to 250 ppm)
Protocol: as §1
For evaluating control of fall armyworm (Spodoptera frugiperda) the test unit consisted of a small open container with a 4-5-day-old corn (maize) plant inside. This was pre-infested (using a core sampler) with 10-15 1-day-old larvae on a piece of insect diet. Test compounds were formulated and sprayed at 250 and/or 50 ppm as described for Test A and replicated three times. After spraying, the test units were maintained in a growth chamber and then the control efficacy was rated for each test unit as described for Test A.

[3] = test system: western flower thrips (Frankliniella occidentalis); experiment: Test D: control of western flower thrips on Soleil bean plant, contact and/or systemic; conditions: 6 days, 25° C.
Protocol: as §1
For evaluating control of the western flower thrips (Frankliniella occidentalis) through contact and/or systemic means, the test unit consisted of a small open container with a 5-7 day old Soleil Bean plant inside. Test compounds were formulated and sprayed at 250 and/or 50 ppm, and the test was replicated three times as described for Test A. After spraying, the test units were allowed to dry for 1 hour and then 22-27 adult thrips were added to each unit and then a black, screened cap was placed on top. The test units were held for 6 days at 25° C. and 45-55% relative humidity. A mortality rating was assessed along with a plant damage rating for each test unit.

[4] = test system: cat flea (Ctenocephalides felis Bouche); experiment: Test E: control of cat flea on orally dosed CD-1 mouse; conditions: 10 mg/kg oral, fleas applied 2 h after dosing, mortality 48 hours after flea application
Protocol: For evaluating control of the cat flea (Ctenocephalides felis Bouche), a CD-1® mouse (about 30 g, male, obtained from Charles River Laboratories, Wilmington, Mass.) was orally dosed with a test compound in an amount of 10 mg/kg solubilized in propylene glycol/glycerol formal (60:40). Two hours after oral administration of the test compound, approximately 8 to 16 adult fleas were applied to each mouse. The fleas were then evaluated for mortality 48 hours after flea application to the mouse.

[5] = sprayed at 250 and/or 50 ppm, no asterisk (not limited to 250 ppm)

SMILES | control efficacy (20% or less feeding damage or 80% or more mortality) [1] | control efficacy (20% or less feeding damage or 80% or more mortality) [2] | control efficacy (20% or less feeding damage or 80% or more mortality) [3, 5] | flea mortality [4] | control efficacy (20% or less feeding damage or 80% or more mortality) ([3]; asterisk: observed only at 250 ppm)
O=C(NCc1ccccn1)c1ccc(C2=NOC(c3cc(Cl)cc(Cl)c3)(C(F)(F)F)C2)c2ccccc12 (stereo not shown) [Compound 2] | very good to excellent levels of control efficacy | very good to excellent levels of control efficacy | very good to excellent levels of control efficacy | ≥ 30% | –
CCOC(=O)CNC(=O)c1ccc(C2=NOC(c3cc(Cl)cc(Cl)c3)(C(F)(F)F)C2)c2ccccc12 (stereo not shown) [Compound 42] | very good to excellent levels of control efficacy | very good to excellent levels of control efficacy | very good to excellent levels of control efficacy | – | –
O=C(NNc1ccccc1)c1ccc(C2=NOC(c3cc(Cl)cc(Cl)c3)(C(F)(F)F)C2)c2ccccc12 (stereo not shown) [Compound 46] | very good to excellent levels of control efficacy | very good to excellent levels of control efficacy | – | – | very good to excellent levels of control efficacy
COC(=O)[C@@H](NC(=O)c1ccc(C2=NOC(c3cc(Cl)cc(Cl)c3)(C(F)(F)F)C2)c2ccccc12)C(C)C (stereo partly shown) [Compound 49] | very good to excellent levels of control efficacy | very good to excellent levels of control efficacy | very good to excellent levels of control efficacy | – | –
O=C(CNC(=O)c1ccc(C2=NOC(c3cc(Cl)cc(Cl)c3)(C(F)(F)F)C2)c2ccccc12)NCC(F)(F)F (stereo not shown) [Compound 51] | very good to excellent levels of control efficacy | very good to excellent levels of control efficacy | very good to excellent levels of control efficacy | – | –
O=C(NCc1ccccn1)c1ccc(C2=NOC(c3cc(Cl)cc(Cl)c3)(C(F)(F)F)C2)c2ccncc12 (stereo not shown) [Compound 104, 5-[5-(3,5-dichlorophenyl)-4,5-dihydro-5-(trifluoromethyl)-3-isoxazolyl]-N-(2-pyridinylmethyl)-8-isoquinolinecarboxamide] | very good to excellent levels of control efficacy | very good to excellent levels of control efficacy | very good to excellent levels of control efficacy | – | –
